{"source": "patent US10787413B2", "about": "“Derivatives of curcuminoids and use thereof as an anticancer agent” (CHINA MEDICAL UNIVERSITY, priority 2016, dated 2020)", "key": {"MDA-MB-157": {"test_system": "MDA-MB-157", "test": "Cell viability, MDA-MB-157 breast cancer cells", "type": "cell-based", "settings": "Homo sapiens; MDA-MB-157 (Triple negative), treated for 24 h", "method": "(§1) Cell viability was evaluated by measuring the reduction in MTT to yield blue formazan. Cells were cultured in 96-well plates, allowed to attach overnight, and then treated with compounds. After treatment, MTT solution (1 mg/ml) was added to each well, and plates were incubated for another 4 h. Medium were removed, blue formazan was dissolved in DMSO, and the absorbance was read at 570 nm^20."}, "PC3 prostate cancer cell": {"test_system": "PC3 prostate cancer cell", "test": "MTT cell viability assay, PC3 prostate cancer cell", "type": "cell-based", "method": "as §1"}, "MDA-MB-231 cells [1]": {"test_system": "MDA-MB-231 cells", "test": "Cell cycle distribution analysis (PI, flow cytometry)", "type": "cell-based, human", "settings": "5 μM, 24 h", "method": "For cell cycle and sub-G1 (apoptosis) determinations, the harvested cells were fixed gently by putting 70% ethanol in 4° C. overnight and then re-suspended in PBS containing 40 μg/ml PI and 0.1 mg/ml RNase and 0.1% Triton X-100 in dark room for 30 min at 37° C. Those cells were analyzed with a flow cytometer equipped with an argon ion laser at 488 nm wavelength^22."}, "[2]": {"test": "Preliminary acute toxicity assay", "settings": "21 days observation", "method": "Normal mice were treated with 21a or 35a by oral route at 500 mg/kg/day for 5 consecutive days, following by 21 days of post-treatment observation. […] Detailed data for their toxicology and safety pharmacology studies will be carried out in the near future.\nFemale nu/nu mice (5 weeks old) were P.O. with vehicle (propylene glycol, 0.1 ml) or high dose of 21a (250 and 500 mg/kg) and 35a (500 mg/kg) for 5 days followed by observation of behavior and lethargy for 21 days."}, "T47D": {"test_system": "T47D", "test": "Cell viability, T47D breast cancer cells", "type": "cell-based", "settings": "Homo sapiens; T47D (ER+/PR+), treated for 24 h", "method": "as §1"}, "MDA-MB-231 cells [3]": {"test_system": "MDA-MB-231 cells", "test": "Apoptosis analysis (annexin V/propidium iodide)", "type": "cell-based, human", "settings": "5 μM, 24 and 48 h", "excerpt": "After treatments, cells were harvested and stained with annexin V and propidium iodide using the Annexin V: FITC Apoptosis Detection Kit II (BD Biosciences) and subjected to flow cytometry (FACScalibur; Becton-Dickinson, Mountain View, Calif., USA). The percentages of apoptotic cells were quantified with CellQuest software (Becton-Dickinson)^24."}, "HS-578T": {"test_system": "HS-578T", "test": "Cell viability, HS-578T breast cancer cells", "type": "cell-based", "settings": "Homo sapiens; HS-578T (Triple negative), treated for 24 h", "method": "as §1"}, "MDA-MB-468": {"test_system": "MDA-MB-468", "test": "Cell viability, MDA-MB-468 breast cancer cells", "type": "cell-based", "settings": "Homo sapiens; MDA-MB-468 (Triple negative), treated for 24 h", "method": "as §1"}, "MDA-MB-231 cells [4]": {"test_system": "MDA-MB-231 cells", "test": "Western blot analysis of treated cells", "type": "cell-based, human", "method": "After treatments, cells were harvested, washed, and suspended in PBS containing proteinase inhibitors and then disrupted with sonication. Protein concentrations were estimated using the Protein Assay kit from Bio-Rad (Hercules, Calif., USA). Samples were resolved with SDS-PAGE and transferred to a polyvinylidene difluoride membrane (EMD Millipore). Each membrane was blocked in 5% (w/v) non-fat milk in Tris-buffered saline with 0.1% (v/v) Tween-20 for 1 h followed by incubation with specific primary antibodies at 4° C. overnight. Each membrane was then incubated with horseradish peroxidase-conjugated secondary antibodies at room temperature for 1 h. Protein signals were detected with the Immobilon Western Chemiluminescent HRP Substrate (EMD Millipore) and visualized using the LAS-4000 imaging system (Fuji, Tokyo, Japan)^25."}, "CDK1": {"test_system": "CDK1", "test": "CDK1 kinase assay on extracts of treated cells", "type": "cell-based, human", "settings": "4-12 h of treatment", "method": "CDK1 kinase activity was analyzed according to the protocol of Medical & Biological Laboratories CDK1 kinase assay kit (MBL International, Nagoya, Japan). In brief; the ability of cell extract prepared from each treatment was measured to phosphorylate its specific substrate, MV Peptide as described previously^23."}, "[5]": {"test": "Solubility in water or alcohol", "type": "physicochemical", "settings": "compared with curcumin"}, "MDA-MB-231 cells [6]": {"test_system": "MDA-MB-231 cells", "test": "Cell morphology, phase-contrast microscope", "type": "cell-based, human", "settings": "10 μM, 24 h", "excerpt": "For morphological observations, cells were visualized and photographed using a phase-contrast microscope equipped with a digital camera (Leica Microsystems, Wetzlar, Germany)^21."}, "BT-474": {"test_system": "BT-474", "test": "Cell viability, BT-474 breast cancer cells", "type": "cell-based", "settings": "Homo sapiens; BT-474 (Her-2+), treated for 24 h", "method": "as §1"}, "SKBR-3": {"test_system": "SKBR-3", "test": "Cell viability, SKBR-3 breast cancer cells", "type": "cell-based", "settings": "Homo sapiens, SK-BR-3; SKBR-3 (Her-2+), treated for 24 h", "method": "as §1"}, "[7]": {"test_system": "Doxorubicin-resistant MDA-MB-231", "test": "Cell viability, Doxorubicin-resistant MDA-MB-231", "type": "cell-based", "settings": "for IC50: Doxorubicin-resistant MDA-MB-231, treated for 24 h", "method": "as §1"}, "MCF-7": {"test_system": "MCF-7", "test": "Cell viability, MCF-7 breast cancer cells", "type": "cell-based", "settings": "Homo sapiens, MCF7; MCF-7 (ER+/PR+), treated for 24 h", "method": "as §1"}, "[8]": {"test_system": "various breast cancer cell lines", "test": "Cell viability, various breast cancer cell lines (21a compared with curcumin)", "type": "cell-based", "settings": "TNBC cells", "method": "as §1"}}, "note": "Read-outs that look alike come from different tables or passages of the source."}
{"smiles": "COc1cc(/C=C/C(=O)/C=C(O)/C=C/c2ccc(OC(=O)C(C)(CO)CO)c(OC)c2)ccc1OC(=O)C(C)(CO)CO", "note": "[Compound 21a, ((1E,3Z,6E)-3-Hydroxy-5-oxohepta-1,3,6-triene-1,7-diyl)bis(2-methoxy-4,1-phenylene) bis(3-hydroxy-2-(hydroxymethyl)-2-methylpropenoate)]", "values": [{"measurement": "IC50", "setting": "MDA-MB-157", "result": "9.23 ± 0.11", "unit": "µM"}, {"measurement": "IC50", "setting": "PC3 prostate cancer cell; PC-3, treated 24 hours, read-out: IC50 24 hours", "result": "7.8 ± 0.03", "unit": "µM"}, {"measurement": "IC50", "setting": "PC3 prostate cancer cell; PC-3, treated 48 hours, read-out: IC50 48 hours", "result": "6 ± 0.35", "unit": "µM"}, {"measurement": "IC50", "setting": "PC3 prostate cancer cell; PC-3, treated 72 hours, read-out: IC50 72 hours", "result": "3.9 ± 0.08", "unit": "µM"}, {"measurement": "G2/M cell population", "setting": "MDA-MB-231 cells [1]", "result": "significantly increased"}, {"measurement": "tumor weight smaller than that of the control group", "setting": "MDA-MB-231 Xenograft; 21a PO combined with Doxorubicin IP 1 mg/kg/day", "result": 80, "unit": "%"}, {"measurement": "reduction of MDA-MB-231 tumor weight compared with control group", "setting": "MDA-MB-231 Xenograft; 21a alone, PO (50 mg/kg/day)", "result": 60, "unit": "%"}, {"measurement": "effect of combined use on antitumor activity of Doxorubicin", "setting": "MDA-MB-231 Xenograft; 21a with Doxorubicin", "result": "enhance the antitumor activity of Doxorubicin"}, {"measurement": "behavior and death at end of experiment", "setting": "[2]; P.O. 21a 250 and 500 mg/kg, 35a 500 mg/kg for 5 days", "result": "no behavior alternation and death"}, {"measurement": "body weight and behavior change", "setting": "[2]; oral 500 mg/kg/day for 5 consecutive days, vs untreated control", "result": "no significant difference"}, {"measurement": "IC50", "setting": "T47D", "result": "19.3 ± 1.71", "unit": "µM"}, {"measurement": "population of annexin V-positive cells", "setting": "MDA-MB-231 cells [3]", "result": "significantly increased"}, {"measurement": "IC50", "setting": "HS-578T", "result": "7.96 ± 0.27", "unit": "µM"}, {"measurement": "IC50", "setting": "MDA-MB-468", "result": "6.13 ± 0.51", "unit": "µM"}, {"measurement": "levels of Cyclin B and CDK 1", "setting": "MDA-MB-231 cells [4]; 5 μM, 0-24 h", "result": "down-regulated"}, {"measurement": "levels of Bcl-2, Bcl-x", "setting": "MDA-MB-231 cells [4]; 10 μM, 0-24 h", "result": "downregulated"}, {"measurement": "levels of CHOP, Bip", "setting": "MDA-MB-231 cells [4]; 10 μM, 0-24 h", "result": "up-regulated"}, {"measurement": "levels of DR5, FADD, Bax", "setting": "MDA-MB-231 cells [4]; 10 μM, 0-24 h", "result": "up-regulated"}, {"measurement": "levels of Ero1, PD1, PERK1, Calnexin, IRE1α", "setting": "MDA-MB-231 cells [4]; 10 μM, 0-24 h", "result": "downregulated"}, {"measurement": "levels of Atg5, Atg7, Atg12, Beclin, p62 and LC3B", "setting": "MDA-MB-231 cells [4]; 10 μM, 4-24 h, time-dependent", "result": "induced"}, {"measurement": "CDK1 activity", "setting": "CDK1", "result": "significant decrease"}, {"measurement": "solubility in either water or alcohol", "setting": "[5]", "result": "better than that of curcumin"}, {"measurement": "cell morphology", "setting": "MDA-MB-231 cells [6]", "result": "caused breast cancer cell apoptosis and autophagy"}, {"measurement": "IC50", "setting": "BT-474", "result": "6.15 ± 0.87", "unit": "µM"}, {"measurement": "IC50", "setting": "SKBR-3", "result": "6.39 ± 0.43", "unit": "µM"}, {"measurement": "times greater inhibitory activity than curcumin", "setting": "[7]; Doxorubicin-resistant MDA-MB-231", "result": 10, "unit": "times"}, {"measurement": "IC50", "setting": "[7]", "result": "6.52 ± 1.7", "unit": "µM"}, {"measurement": "IC50", "setting": "[7]; Homo sapiens, MDA-MB-231, 24 h", "result": 6.5, "unit": "µM"}, {"measurement": "IC50", "setting": "MCF-7", "result": "6.13 ± 0.51", "unit": "µM"}, {"measurement": "times greater inhibitory activity than curcumin", "setting": "[8]", "result": "3.4-7.4 times"}]}
